In patent US9248109B2, “High penetration prodrug compositions of peptides and peptide-related compounds” (priority 2009, dated 2016):

Tests used:
[1] = In vitro penetration rate across isolated human skin in modified Franz cells (HPLC); conditions: parent drugs; at lowest detectable value, considered not detectable
Protocol: The penetration rates of HPPs/HPCs and their parent drugs through human skin were measured in vitro by modified Franz cells. The Franz cells had two chambers, the top sample chamber and the bottom receiving chamber. The human skin tissue (360-400 p.m thick) that separated the top and the receiving chambers was isolated from the anterior or posterior thigh areas.
A compound tested (2 mL, 20% in 0.2 M phosphate buffer, pH 7.4) was added to the sample chamber of a Franz cell. The receiving chamber contains 10 ml of pH 7.4 phosphate buffer (0.2 M) which was stirred at 600 rpm. The amount of the tested compound penetrating the skin was determined by high-performance liquid chromatography (HPLC) method.

mice = assay: Acetic acid writhing inhibition in mice, transdermal; format: in vivo, mouse; conditions: 10 mg/kg transdermally to the neck, acetic acid i.p. 30 minutes later; for rate of writhing inhibition (%): based on the control group; for No. of Writhings: control 35.0
Protocol: The number of writhings that occurred when mice were administered an acetic acid solution intraperitoneally were counted, and the rate of inhibition based on the control group was calculated. […] 30 minutes later, acetic acid solution was administered. The group A was the control group.

Osborne-Mendel rats = conditions: injected intraperitoneally, rats starved overnight, high-fat diet; cited from earlier work
rats = assay: Solicitation and copulation of rats treated transdermally with HPPs/HPCs of Melanocortin II; format: in vivo, rat; conditions: for increase in copulation comparing to the control group / increase in solicitation comparing to the control group: 2 mg/kg once per day for 5 days; for Increased Copulation / Increased Solicitation: 2 mg/kg on the back once per day for 5 days, control = 1
Protocol: The same dosage of cyclo(1,6)-Ac-Nle-Asp-His-Phe-Arg(NO2)-Trp-Lys-OCH2CH2N(CH2CH3)2.HCl(SEQ ID NO: 201) (peptide B) was applied to the back of another group of male rats (Group B-1, 30 rats). Rats of a control group were not treated with any drug. […] 6 fold increase in solicitation and 3 fold increase in copulation for Group B-1 in rats were observed comparing to the control group (Table 15).
2 mg/kg peptide A and peptide B in 0.2 ml of pH 7.0 phosphate buffer (0.1M) were applied to the back of both male rats (30 rats) and female rats (30 rates) once per day for 5 days. Rats of a control group were not treated with any drug.

[2] = male and female rats treated (Groups A-2, B-2)
[3] = male rats treated (Groups A-1, B-1)

With `CSCC[C@H](NC(=O)[C@H](Cc1ccccc1)NC(=O)CNC(=O)CNC(=O)[C@@H](N)Cc1ccc(O)cc1)C(=O)O` [Met-enkephalin, H-Tyr-Gly-Gly-Phe-Met-OH] the apparent flux value [1] was 1 μg/cm^2/h.

With “Ac-Tyr(Ac)-D-Ala-Gly-Phe-Leu-OCH2CH2N(CH2CH3).HCl” the “rate of writhing inhibition (%)” value (mice) was 85% and the “No. of Writhings” value (mice) was 5.2.

In the case of H-Val-Pro-Asp-Pro-Arg OH, the “food intake (in words)” value (Osborne-Mendel rats) is listed as “dose-dependent reduction in food intake”.

With “HCl.H-Tyr(Ac)-D-Ala-Gly-Phe-Leu-OCH2(CH2)4—CH3 [B]” the “rate of writhing inhibition (%)” value (mice) was 75% and the “No. of Writhings” value (mice) was 8.6.

For HCl.H-Tyr(Ac)-D-Ala-Gly-Phe-Met(O)—OL, the “rate of writhing inhibition (%)” value (mice) was 91% and the “No. of Writhings” value (mice) was 3.2.

For “cyclo(1,6)-Ac-Nle-Asp-His-Phe-Arg(diAc)-Trp-Lys-OCH2CH2N(CH2CH3)2.HCl”, the “increase in copulation comparing to the control group” value (rats; [2]) was 5 fold, the “increase in solicitation comparing to the control group” value (rats; [2]) was 6 fold and the “Increased Copulation” value (rats; male and female rats treated) was 5. The “Increased Solicitation” value (rats; male and female rats treated) was 6, the “increase in copulation comparing to the control group” value (rats; [3]) was 3 fold and the “increase in solicitation comparing to the control group” value (rats; [3]) was 5 fold. For the same compound, the “Increased Copulation” value (rats; male rats treated) was 3 and the “Increased Solicitation” value (rats; male rats treated) was 5.
